Measurements as given in US20150344427A1 (EPIZYME, INC., priority 2012, published 2015).

Each compound was assayed against T1, EZH2 Y641F mutant (PRC2 enzyme) (Homo sapiens, UniProt Q15910, Y641F) (assay: PRC2 enzyme assay on peptide substrate, EZH2 Y641F mutant). Conditions: Y641F mutant PRC2 enzyme 4 nM, H3K27me2 peptide, 3H-SAM Flashplate.
T1 construct: made in house; host or cells: Spodoptera frugiperda (sf9) cells, baculovirus
Format: biochemical
Description: General Materials. S-adenosylmethionine (SAM), S-adenosylhomocyteine (SAH), bicine, KCl, Tween20, dimethylsulfoxide (DMSO) and bovine skin gelatin (BSG) were purchased from Sigma-Aldrich at the highest level of purity possible. Dithiothreitol (DTT) was purchased from EMD. ^3H-SAM was purchased from American Radiolabeled Chemicals with a specific activity of 80 Ci/mmol. 384-well streptavidin Flashplates were purchased from PerkinElmer.
Peptides representative of human histone H3 residues 21-44 containing either an unmodified lysine 27 (H3K27me0) or dimethylated lysine 27 (H3K27me2) were synthesized with a C-terminal G(K-biotin) linker-affinity tag motif and a C-terminal amide cap by 21st Century Biochemicals. […] The sequences are listed below.
Human PRC2 enzymes were purified as 4-component enzyme complexes co-expressed in Spodoptera frugiperda (sf9) cells using a baculovirus expression system. […] The EED subunit contained an N-terminal FLAG tag that was used to purify the entire 4-component complex from sf9 cell lysates.
The assays were all performed in a buffer consisting of 20 mM bicine (pH=7.6), 0.5 mM DTT, 0.005% BSG and 0.002% Tween20, prepared on the day of use. Compounds in 100% DMSO (1 μL) were spotted into polypropylene 384-well V-bottom plates (Greiner) using a Platemate 2×3 outfitted with a 384-channel pipet head (Thermo). DMSO (1 μL) was added to columns 11, 12, 23, 24, rows A-H for the maximum signal control, and SAH, a known product and inhibitor of PRC2 (1 μL) was added to columns 11,12, 23, 24, rows I-P for the minimum signal control. A cocktail (40 μL) containing the wild-type PRC2 enzyme and H3K27me0 peptide or any of the Y641 mutant enzymes and H3K27me2 peptide was added by Multidrop Combi (Thermo). The compounds were allowed to incubate with PRC2 for 30 min at 25° C., then a cocktail (10 μL) containing a mixture of non-radioactive and ^3H-SAM was added to initiate the reaction (final volume=51 μL). In all cases, the final concentrations were as follows: wild-type or mutant PRC2 enzyme was 4 nM, SAH in the minimum signal control wells was 1 mM and the DMSO concentration was 1%. The assays were stopped by the addition of non-radioactive SAM (10 μL) to a final concentration of 600 μM, which dilutes the ^3H-SAM to a level where its incorporation into the peptide substrate is no longer detectable. 50 μL of the reaction in the 384-well polypropylene plate was then transferred to a 384-well Flashplate and the biotinylated peptides were allowed to bind to the streptavidin surface for at least 1 h before being washed three times with 0.1% Tween20 in a Biotek ELx405 plate washer. The plates were then read in a PerkinElmer TopCount platereader to measure the quantity of ^3H-labeled peptide bound to the Flashplate surface, measured as disintegrations per minute (dpm) or alternatively, referred to as counts per minute (cpm).
Where dpm=disintegrations per minute, cmpd=signal in assay well, and min and max are the respective minimum and maximum signal controls.
Where top and bottom are the normally allowed to float, but may be fixed at 100 or 0 respectively in a 3-parameter fit. The Hill Coefficient normally allowed to float but may also be fixed at 1 in a 3-parameter fit. Y is the % inhibition and X is the compound concentration.

T1 sequence (Q15910 whole entry Y641F): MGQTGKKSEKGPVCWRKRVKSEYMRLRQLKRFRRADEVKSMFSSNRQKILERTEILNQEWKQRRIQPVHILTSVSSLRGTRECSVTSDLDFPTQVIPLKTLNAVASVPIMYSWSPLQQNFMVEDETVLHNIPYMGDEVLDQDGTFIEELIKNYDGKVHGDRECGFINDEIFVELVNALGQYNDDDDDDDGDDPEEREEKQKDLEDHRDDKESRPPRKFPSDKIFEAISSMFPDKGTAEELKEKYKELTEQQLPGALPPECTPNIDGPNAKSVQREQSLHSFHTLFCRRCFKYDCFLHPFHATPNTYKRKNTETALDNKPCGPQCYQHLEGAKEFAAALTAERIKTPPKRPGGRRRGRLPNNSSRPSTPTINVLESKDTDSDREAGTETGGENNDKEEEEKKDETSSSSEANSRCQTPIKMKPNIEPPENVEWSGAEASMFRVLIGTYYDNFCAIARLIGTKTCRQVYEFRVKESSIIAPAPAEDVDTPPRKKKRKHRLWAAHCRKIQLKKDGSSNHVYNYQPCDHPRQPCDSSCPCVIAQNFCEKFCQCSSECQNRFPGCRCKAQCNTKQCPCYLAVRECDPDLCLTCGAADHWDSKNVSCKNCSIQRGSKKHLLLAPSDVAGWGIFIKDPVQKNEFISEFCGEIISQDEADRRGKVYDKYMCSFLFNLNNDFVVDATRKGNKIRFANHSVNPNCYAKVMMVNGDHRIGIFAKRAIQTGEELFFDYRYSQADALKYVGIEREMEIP
T1 sequence (O75530 whole entry partner): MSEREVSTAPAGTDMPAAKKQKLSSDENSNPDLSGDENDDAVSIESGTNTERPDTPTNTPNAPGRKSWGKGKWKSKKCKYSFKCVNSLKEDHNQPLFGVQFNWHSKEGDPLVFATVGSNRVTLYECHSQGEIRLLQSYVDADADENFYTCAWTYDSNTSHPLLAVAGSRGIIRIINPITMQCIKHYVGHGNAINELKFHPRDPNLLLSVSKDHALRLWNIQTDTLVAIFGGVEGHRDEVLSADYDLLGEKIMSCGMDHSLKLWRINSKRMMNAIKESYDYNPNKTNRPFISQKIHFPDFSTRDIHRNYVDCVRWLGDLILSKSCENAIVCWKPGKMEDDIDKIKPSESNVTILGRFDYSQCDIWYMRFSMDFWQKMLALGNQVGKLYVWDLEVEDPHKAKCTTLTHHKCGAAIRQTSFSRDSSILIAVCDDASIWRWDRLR
T1 sequence (Q15022 whole entry partner): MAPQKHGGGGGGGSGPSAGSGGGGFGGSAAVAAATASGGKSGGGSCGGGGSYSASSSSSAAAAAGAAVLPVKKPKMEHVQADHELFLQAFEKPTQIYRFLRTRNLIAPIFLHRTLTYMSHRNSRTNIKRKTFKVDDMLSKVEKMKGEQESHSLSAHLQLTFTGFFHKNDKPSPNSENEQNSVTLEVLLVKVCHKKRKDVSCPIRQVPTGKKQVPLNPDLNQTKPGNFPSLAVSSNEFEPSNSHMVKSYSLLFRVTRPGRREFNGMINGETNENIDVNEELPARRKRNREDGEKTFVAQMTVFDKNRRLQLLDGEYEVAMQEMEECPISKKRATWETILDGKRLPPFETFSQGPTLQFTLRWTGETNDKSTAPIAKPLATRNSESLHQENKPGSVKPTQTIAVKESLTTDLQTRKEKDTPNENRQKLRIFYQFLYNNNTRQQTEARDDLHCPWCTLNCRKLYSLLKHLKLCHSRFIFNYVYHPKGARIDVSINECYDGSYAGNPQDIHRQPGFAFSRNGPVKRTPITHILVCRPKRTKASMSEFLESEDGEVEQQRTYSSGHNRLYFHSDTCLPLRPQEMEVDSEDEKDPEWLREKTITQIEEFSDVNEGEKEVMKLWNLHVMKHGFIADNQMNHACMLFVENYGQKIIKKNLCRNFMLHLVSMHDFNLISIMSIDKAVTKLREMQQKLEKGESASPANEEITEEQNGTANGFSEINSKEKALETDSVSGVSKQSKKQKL
T1 sequence (Q09028 whole entry partner): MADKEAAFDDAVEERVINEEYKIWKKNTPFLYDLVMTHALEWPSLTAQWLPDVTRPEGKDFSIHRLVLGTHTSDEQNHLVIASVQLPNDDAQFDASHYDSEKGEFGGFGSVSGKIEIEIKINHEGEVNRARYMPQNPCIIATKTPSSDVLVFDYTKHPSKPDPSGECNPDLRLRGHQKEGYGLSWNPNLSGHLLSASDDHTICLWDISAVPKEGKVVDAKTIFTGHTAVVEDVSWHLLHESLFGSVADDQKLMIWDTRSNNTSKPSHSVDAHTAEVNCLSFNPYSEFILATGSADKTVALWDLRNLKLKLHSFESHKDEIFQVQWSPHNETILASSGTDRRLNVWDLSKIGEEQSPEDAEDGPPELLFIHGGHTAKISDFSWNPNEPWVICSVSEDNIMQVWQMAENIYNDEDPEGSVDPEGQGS

CCCN(c1cc(-c2ccc(OCCOC)cc2)cc(C(=O)NCc2c(C)[nH]c(C)cc2=O)c1C)[C@H]1CC[C@H](N(C)C)CC1 [Compound 94] and CCN(c1cc(-c2ccc(OCCOC)cc2)cc(C(=O)NCc2c(C)[nH]c(C)cc2=O)c1C)[C@H]1CC[C@H](N(C)C)CC1 [Compound 93] are within 1.5-fold of each other in IC50: 7 nM for the first, 5 nM for the second.

CCN(c1cc(-c2ccc(OCCOC)cc2)cc(C(=O)NCc2c(Cl)[nH]c(C)cc2=O)c1C)[C@H]1CC[C@H](N(C)C)CC1 [Compound 92] and CCN(c1cc(-c2ccc(OCCOC)cc2)cc(C(=O)NCc2c(C)[nH]c(C)cc2=O)c1C)[C@H]1CC[C@H](N(C)CCOC)CC1 [Compound 100] are within 1.5-fold of each other in IC50: 23 nM for the first, 18 nM for the second.

Compared with CCn1c(C)cc(=O)c(CNC(=O)c2cc(Cl)cc(N(CC)[C@H]3CC[C@H](N(C)C)CC3)c2C)c1C [Compound 87], CCN(c1cc(Cl)cc(C(=O)NCc2c(C)n(C)c(C)cc2=O)c1C)[C@H]1CC[C@H](N(C)C)CC1 [Compound 86] is higher in IC50: 37400 nM for the first, over 50000 nM for the second. The first is the more potent here.

Going from CCN(c1cc(-c2cnn(C)c2)cc(C(=O)NCc2c(Cl)[nH]c(C)cc2=O)c1C)[C@H]1CC[C@H](N(C)C)CC1 [Compound 89] to CCN(c1cc(-c2ccc(C)nc2)cc(C(=O)NCc2c(Cl)[nH]c(C)cc2=O)c1C)[C@H]1CC[C@H](N(C)C)CC1 [Compound 90], the IC50 falls from 229 nM to 40 nM (5.7-fold).

CCN(c1cc(Cl)cc(C(=O)NCc2c(C)[nH]c(C)cc2=O)c1C)[C@H]1CC[C@H](N(C)C)CC1 [Compound 1, 5-chloro-N-((2,6-dimethyl-4-oxo-1,4-dihydropyridin-3-yl)methyl)-3-(((trans)-4-(dimethylamino)cyclohexyl)(ethyl)amino)-2-methylbenzamide] and CCN(c1cc(-c2cnc(C)cn2)cc(C(=O)NCc2c(Cl)[nH]c(C)cc2=O)c1C)[C@H]1CC[C@H](N(C)C)CC1 [Compound 91] are within 1.5-fold of each other in IC50: 40 nM for the first, 49 nM for the second.

CCN(c1cc(-c2ccc(COC)nc2)cc(C(=O)NCc2c(Cl)[nH]c(C)cc2=O)c1C)[C@H]1CC[C@H](N(C)C)CC1 [Compound 88] was tested, and the IC50 was 46 nM.
